Measurements: PMC9118553, “In Vivo Bioconcentration of 10 Anionic Surfactants in Rainbow Trout Explained by In Vitro Data on Partitioning and S9 Clearance” (Environmental Science & Technology, 2022)

How the values were obtained:
[1] = set-up: method as in REACH dossier; conditions: method as noted in the cell (shake flask, solubility ratio, HPLC, BCFBAF, pH); ref REACH dossier; cited from earlier work
[2] = ref REACH dossier; cited from earlier work
[3] = system: carp; set-up: method as in REACH dossier; conditions: carp 28d pH7; ref REACH dossier; cited from earlier work
[4] = marked * = measured; used for IVIVE; same values as Table 3; cited from earlier work
[5] = RT-S9 substrate depletion assay, individual compounds, with IVIVE; conditions: tested individually
Procedure: The in vitro intrinsic clearance by the S9 fraction of rainbow trout liver was measured for the same 11 anionic surfactants used in the BCF experiment as separate compounds. […] An established RT-S9 substrate depletion assay was employed,[25]−[27] predating the currently available OECD guideline 319B.[28] A single batch of the characterized liver homogenate material was prepared at the US EPA lab in Duluth and shipped on dry ice to the testing facilities at the University of Amsterdam. The test was conducted using the same method applied for a series of cationic surfactants in Droge et al.[29] and is summarized together with the in vitro–in vivo extrapolation in Text S4.
(§1) Text S4: Trout liver S9 parent depletion assay details and IVIVE
(§2) Liver tissue was separately pooled from the same five rainbow trout (three males/two females, ~300 g, liver weight ~3 g) used also for the RT-S9 study on a series of cationic surfactants (Droge et al., 2021b). The liver sample was homogenized in an appropriate buffer and then centrifuged to yield a 13,000 x g supernatant (the ‘S9 fraction’, lacking only mitochondrial fractions). No further refinement towards microsomal fractions was made to remove cytosolic and lysosomal components.
(§3) Upon arrival at the University of Amsterdam the liver
(§4) S9 material was stored in a -80 °C freezer until use.
(§5) Individual chemicals were first dissolved in methanol and then further diluted to 20% methanol in 100 mM phosphate buffer to make a ~20 µM stock solution, which was then spiked as 10 µL in 190 µL of active S9 mixture. The active S9 mixture consisted of 100 mM potassium phosphate-buffered saline (PPBS) adjusted to pH 7.8, 2 mM β-NADPH, 2 mM UDPGA, 0.1 mM PAPS, 5 mM GSH, 10 μg/mL alamethicin (in methanol carrier; 0.1% v/v final concentration), and 2 mg/mL S9 protein. The substrate depletion assays were performed using the multiple vial method described in OECD TG 319B, employing two or three separately spiked series.
(§6) Reactions were performed at 11 °C in a temperature-controlled water bath (B. Braun Frigomix-R) that was placed on a 2 cm travel path shaker (Gerhardt LS 10) set at 45 rpm. As a positive […]
(§7) alkylsulfonates, no additional assays with inactivated RT-S9 were performed.
(§8) Reactions were quenched with 600 µL ice-cold acetonitrile. After 10 s vortexing and 5 min centrifugation (Hermle Z300, 2500 rpm), 100 µL clear supernatant was transferred into 300 µL glass inserts placed in new autosampler vials, and mixed with 100 µL pure water. Concentrations were measured using a Prominence UFLC-XR system (Shimadzu) coupled to a tandem mass spectrometer (QTRAP 4000, Applied Biosystems) with a Turbo Ion spray source operated at 400 ◦C. For chromatographic separations, a 100 x 2.1mm x 2.7 µm Supelco Ascentis Express column was used (40 °C), with eluent A: pure water with 2 mM ammonium acetate, and eluent […]
(§9) prepared in 50% acetonitrile/water, calibration curves used covered at least four points in a log-linear range. The lowest external standard to fit the log-linear calibration curve served as limit of quantification, requiring a peak of at least 10x the average noise.
(§10) Each vial was treated as an independent vial with recorded exposure time. Log-transformed concentration data of the parent compound were plotted against exposure time (min) and analysed using Graphpad PRISM 8. […]
(§11) the slope (min-1) was multiplied by -2.3 and by 60 (min h-1) to obtain a first order depletion rate […]
(§12) Extrapolation of kdep to whole body rate biotransformation rate constant (kB-S9) The basic approach to extrapolate first order depletion rate constants (k dep) to whole body

[6] = RT-S9 substrate depletion assay, mixture of 9 anionic surfactants (AnionMixture); conditions: tested in a mixture
Procedure: An established RT-S9 substrate depletion assay was employed,[25]−[27] predating the currently available OECD guideline 319B.[28] A single batch of the characterized liver homogenate material was prepared at the US EPA lab in Duluth and shipped on dry ice to the testing facilities at the University of Amsterdam. The test was conducted using the same method applied for a series of cationic surfactants in Droge et al.[29] and is summarized together with the in vitro–in vivo extrapolation in Text S4.
as §1, §2, §3, §4, §5, §6, §7, §8, §9, §10, §11, §12

[7] = system: rainbow trout; conditions: rainbow trout, similar water hardness; cited from earlier work
[8] = system: Danio rerio; conditions: in vivo, pH 7.6; cited from earlier work
[9] = set-up: method as in REACH dossier; conditions: experimental, several studies; ref REACH dossier; cited from earlier work
[10] = system: several species; set-up: method as in doi:10.1186/s12302-020-00435-1; conditions: LSC of radiolabeled compound, upper boundary; cited from earlier work
[11] = system: Cyprinus carpio; conditions: in vivo; cited from earlier work

Structure (SMILES)	LogKow [1]	Degradation information ~28d-sludge test (% degradable) [2]	further results
CCCCCCCCCCCCCCCCCCOP(=O)([O-])[O-].[K+].[K+] [1-Octadecanol, phosphate, potassium salt]	8.556	0%	–
CC(CC(=O)O)CC(C)(C)C (stereo not shown) [3,5,5-trimethylhexanoic acid]	–	96%	BCF [3]: 1 to 7 L/kg
CCCCCCCC(C=O)NCCCCCC(=O)O (stereo not shown) [6-[(1-formyloctyl)amino]hexanoic acid]	2.47	98%	–
CCCCC(CC)COP(=O)(O)OCC(CC)CCCC (stereo not shown) [BEHP, bis(2-ethylhexyl)phosphate]	–	–	log DMW, membrane-water distribution ratio [4]: 3.81; CLint,S9 [5]: n.s.; Slope of depletion curve (log concentration vs time) ([5]; 2 mg/mL S9 protein, 11 °C): -0.0001 min-1; Slope of depletion curve (log concentration vs time) [6]: -0.0003 min-1
CCCCCCCCCC(C)c1ccc(S(=O)(=O)O)cc1 (stereo not shown) [C11-2-LAS, reference compound]	–	–	BCF [7]: 6 L kg^–1
CCCCCCCCCCCC(=O)O [C11CO2]	–	–	BCF [8]: 255 L/kg; Exp BCF [8]: 255
CCCCCCCCCCCCOS(=O)(=O)[O-].[Na+] [C12SO4, sodium dodecylsulfate]	–	94-97%	BCF [9]: 1-10; BCF [10]: 1–7.15 L kg^–1
CCCCCCCCCCCCCCOS(=O)(=O)O [C14SO4]	–	–	BCF [11]: 11 L kg^–1
CCCCC(CC)COP(=O)(O)O (stereo not shown) [[(2-ethylhexyl)oxy]phosphonic acid]	< 3	26-78%	–
CCCCCCC(O)CCCCCCCCCCC(=O)[O-].CCCCCCCCCCCCCCCCCC(=O)[O-].[Li+].[Li+] (stereo not shown) [dilithium(1+) ion 12-hydroxyoctadecanoate octadecanoate]	–	74-97%	–
CCCCCCC(O)CCCCCCCCCCC(=O)[O-].[Li+] (stereo not shown) [lithium(1+) ion 12-hydroxyoctadecanoate]	–	74-97%	–
CCCCCCCCC(=O)O [nonanoic acid]	3.42	68 -75%	–
CCCCCCCCP(=O)(O)O [octylphosphonic acid]	2.7	65-88%	–
CCCCC(CC)COC(=O)CC(C(=O)OCC(CC)CCCC)S(=O)(=O)[O-].[K+] (stereo not shown) [potassium 1,4-bis[(2-ethylhexyl)oxy]-1,4-dioxobutane-2-sulfonate]	2.0	83.5-100%	–
CCCCCCCCCCCCOP(=O)([O-])O.[K+] [potassium dodecyl hydrogen phosphate]	2.74	4-63%	–
CC(C)CP(=S)([S-])CC(C)C.[Na+] [sodium diisobutylphosphinodithioate]	-1.64	78,8%	–
